From the NIST ThermoML archive (doi:10.1021/je9004905)
“And” between values parts separate entries of the source, which are not always exact repeats. Equal entries are not always repeated. ± gives the expanded uncertainty stated by the source.

Conditions: Liquid, Closed cell (Static) method

OCCO [1,2-ethanediol]
Conditions	vapor or sublimation pressure [kPa]
307.7 K	0.028 ± 0.002
312.6 K	0.041 ± 0.004
316.5 K	0.055 ± 0.006
318.8 K	0.061 ± 0.006
322.1 K	0.077 ± 0.008
326.1 K	0.107 ± 0.01
328.2 K	0.124 ± 0.012
334.5 K	0.196 ± 0.026
335.2 K	0.201 ± 0.028
340.2 K	0.278 ± 0.039
347.9 K	0.454 ± 0.065
359.2 K	0.9 ± 0.12
367.9 K	1.483 ± 0.19
373.4 K	1.95 ± 0.27
384.5 K	3.467 ± 0.47

O=CCO [2-hydroxyacetaldehyde]
Conditions	vapor or sublimation pressure [kPa]
295.85 K	0.0037 ± 0.0004
305.1 K	0.009 ± 0.0011
305.51 K	0.0096 ± 0.0024
319.5 K	0.0335 ± 0.0057
319.84 K	0.0335 ± 0.0057
322.38 K	0.0368 ± 0.0057
323.64 K	0.0458 ± 0.0069
327.73 K	0.062 ± 0.011
333.04 K	0.0984 ± 0.02
339.32 K	0.153 ± 0.018
340.91 K	0.17 ± 0.02
341.95 K	0.182 ± 0.024
342.82 K	0.198 ± 0.03
346.83 K	0.253 ± 0.036
355.98 K	0.486 ± 0.052

CC(=O)CO [acetol]
Conditions	vapor or sublimation pressure
273.22 K	0.127 ± 0.018 kPa
275.48 K	0.136 ± 0.018 kPa
277.78 K	0.162 ± 0.022 kPa
278.55 K	0.167 ± 0.022 kPa and 0.172 ± 0.022 kPa
280.9 K	0.201 ± 0.084 kPa
281.69 K	0.205 ± 0.026 kPa and 0.21 ± 0.026 kPa
289.86 K	0.356 ± 0.042 kPa
290.7 K	0.363 ± 0.042 kPa and 0.36 ± 0.042 kPa
293.26 K	0.431 ± 0.05 kPa
295.86 K	0.516 ± 0.06 kPa and 0.495 ± 0.058 kPa
296.74 K	0.531 ± 0.062 kPa
300.3 K	0.617 ± 0.07 kPa
301.2 K	0.642 ± 0.072 kPa
302.11 K	0.717 ± 0.08 kPa
303.03 K	0.746 ± 0.084 kPa
303.95 K	0.817 ± 0.092 kPa
